Measurements published in patent US8143263B2, “Therapeutic agents” (Astrazeneca AB, priority 2008, dated 2012).

Each compound was assayed against T1, recombinant human pancreatic GLK (Homo sapiens, UniProt P35557) (assay: biochemical).
T1 sequence (P35557 1-465): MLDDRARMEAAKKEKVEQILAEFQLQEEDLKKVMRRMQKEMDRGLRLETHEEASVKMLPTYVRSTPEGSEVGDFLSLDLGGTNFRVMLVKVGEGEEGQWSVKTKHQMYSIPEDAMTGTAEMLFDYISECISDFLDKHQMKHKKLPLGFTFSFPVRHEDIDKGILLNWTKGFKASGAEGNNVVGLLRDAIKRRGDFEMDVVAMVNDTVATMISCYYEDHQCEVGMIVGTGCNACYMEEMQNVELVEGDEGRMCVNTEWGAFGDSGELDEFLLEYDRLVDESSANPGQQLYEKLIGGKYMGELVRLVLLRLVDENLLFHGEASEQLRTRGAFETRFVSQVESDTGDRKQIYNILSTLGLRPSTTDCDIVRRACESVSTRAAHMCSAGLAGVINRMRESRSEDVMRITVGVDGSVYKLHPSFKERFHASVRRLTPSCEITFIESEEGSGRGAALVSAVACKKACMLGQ
`Cc1ccc(NC(=O)[C@H](COCCO)Oc2ncnc3c2cnn3Cc2ccccc2)nc1` [Example 181, (S)-2-(1-benzyl-1H-pyrazolo[3,4-d]pyrimidin-4-yloxy)-3-(2-hydroxyethoxy)-N-(5-methylpyridin-2-yl)propanamide] showed an EC50 of 3300 nM.
For `COC[C@H](Oc1ncnc2c1cnn2-c1ncccc1Cl)C(=O)Nc1cnc(C)cn1` [Example 90, (2S)-2-(1-(3-chloropyridin-2-yl)-1H-pyrazolo[3,4-d]pyrimidin-4-yloxy)-3-methoxy-N-(5-methylpyrazin-2-yl)propanamide], the EC50 was 5400 nM.
Compound `C[C@H](CO)OC[C@H](Oc1ncnc2c1cnn2-c1c(C#N)cccc1C#N)C(=O)Nc1ccc(Cl)cn1` [Example 236, (2S)—N-(5-chloro-2-pyridyl)-2-[1-(2,6-dicyanophenyl)pyrazolo[3,4-d]pyrimidin-4-yl]oxy-3-[(1R)-2-hydroxy-1-methyl-ethoxy]propanamide] has an EC50 of 740 nM.
With `CC(C)OCC(Oc1ncnc2c1cnn2-c1ccccc1Cl)C(=O)Nc1ccc(F)cn1` (stereo not shown) [Example 112, 2-[1-(2-chlorophenyl)pyrazolo[4,5-e]pyrimidin-4-yl]oxy-N-(5-fluoro-2-pyridyl)-3-isopropoxy-propanamide] the EC50 was 260 nM.
Work on `COCC[C@@H](Oc1ncnc2c1cnn2-c1ccccc1Cl)C(=O)Nc1ccc(C)cn1` [Example 20, (R)-2-{[1-(2-Chlorophenyl)-1H-pyrazolo[3,4-d]pyrimidin-4-yl]oxy}-4-methoxy-N-(5-methylpyridin-2-yl)butanamide] yielded an EC50 of 9300 nM.
With `N#Cc1ccc(NC(=O)[C@H](CCO)Oc2ncnc3c2cnn3-c2ncccc2Cl)nc1` [Example 143e, (2S)-2-[1-(3-chloro-2-pyridyl)pyrazolo[4,5-e]pyrimidin-4-yl]oxy-N-(5-cyano-2-pyridyl)-4-hydroxy-butanamide] the EC50 was 530 nM.
For `Cc1nnc(NC(=O)C(COC(C)C)Oc2ncnc3c2cnn3-c2ccccc2Cl)o1` (stereo not shown) [2-[1-(2-chlorophenyl)pyrazolo[4,5-e]pyrimidin-4-yl]oxy-3-isopropoxy-N-(5-methyl-1,3,4-oxadiazol-2-yl)propanamide], the EC50 was > 100000 nM.
With `Cc1cnc(NC(=O)[C@H](COC2CCC2)Oc2ncnc3c2cnn3-c2ccccc2S(C)(=O)=O)cn1` [Example 140, (2S)-3-cyclobutoxy-N-(5-methylpyrazin-2-yl)-2-(1-(2-(methylsulfonyl)phenyl)-1H-pyrazolo[3,4-d]pyrimidin-4-yloxy)propanamide] the EC50 was 1200 nM.
Compound `CC(=O)NCC(Oc1ncnc2c1cnn2-c1ccccc1Cl)C(=O)Nc1nc(C)cs1` (stereo not shown) [Example 48, 3-Acetamido-2-{[1-(2-chlorophenyl)-1h-pyrazolo[3,4-d]pyrimidin-4-yl]oxy}-n-(4-methyl-1,3-thiazol-2-yl)propanamide] has an EC50 of 11000 nM.
In the case of `COC[C@@H](Oc1ncnc2c1cnn2-c1ccccc1Cl)C(=O)Nc1ccc(C)cn1` [Example 2, (R)-2-{[1-(2-chlorophenyl)-1H-pyrazolo[3,4-d]pyrimidin-4-yl]oxy}-3-methoxy-N-(5-methylpyridin-2-yl)propanamide], the EC50 is reported as ≥ 100000 nM.
For `COCCOCCC(Sc1ncnc2c1cnn2-c1ccccc1Cl)C(=O)Nc1ccc(C)cn1` (stereo not shown) [2-[1-(2-chlorophenyl)pyrazolo[4,5-e]pyrimidin-4-yl]sulfanyl-4-(2-methoxyethoxy)-N-(5-methyl-2-pyridyl)butanamide], the EC50 was > 100000 nM.
With `CC(C)OC[C@H](Oc1ncnc2c1cnn2-c1ccccc1Cl)C(=O)Nc1ccccn1` [Example 118a, (2S)-2-[1-(2-chlorophenyl)pyrazolo[4,5-e]pyrimidin-4-yl]oxy-3-isopropoxy-N-(2-pyridyl)propanamide] the EC50 was 120 nM.
`CCOC[C@H](Oc1ncnc2c1cnn2-c1ccncc1C)C(=O)Nc1ccc(Cl)cn1` [Example 128, (2S)—N-(5-Chloropyridin-2-yl)-3-ethoxy-2-[1-(3-methylpyridin-4-yl)pyrazolo[4,5-e]pyrimidin-4-yl]oxypropanamide] showed an EC50 of 920 nM.
`CC(C)OC[C@H](Oc1ncnc2c1cnn2-c1ncccc1Cl)C(=O)Nc1ccc(Cl)cn1` [Example 127i, (2S)—N-(5-chloro-2-pyridyl)-2-[1-(3-chloro-2-pyridyl)pyrazolo[4,5-e]pyrimidin-4-yl]oxy-3-isopropoxy-propanamide] gave an EC50 of 360 nM.
Work on `C[C@H](CO)OC[C@H](Oc1ncnc2c1cnn2-c1ncccc1Cl)C(=O)Nc1ccc(F)cn1` [Example 191, (2S)-2-(1-(3-chloropyridin-2-yl)-1H-pyrazolo[3,4-d]pyrimidin-4-yloxy)-N-(5-fluoropyridin-2-yl)-3-((R)-1-hydroxypropan-2-yloxy)propanamide] yielded an EC50 of 840 nM.
`COc1ccccc1-n1ncc2c(OC(C)C(=O)Nc3ccc(C)cn3)ncnc21` (stereo not shown) [Example 44, 2-{[1-(2-Methoxyphenyl)-1H-pyrazolo[3,4-d]pyrimidin-4-yl]oxy}-N-(5-methylpyridin-2-yl)propanamide] showed an EC50 of 3400 nM.
For `COCC[C@H](Oc1ncnc2c1cnn2-c1ncccc1Cl)C(=O)Nc1ccc(C)cn1` [Example 102, (2S)-2-(1-(3-Chloropyridin-2-yl)-1H-pyrazolo[3,4-d]pyrimidin-4-yloxy)-4-methoxy-N-(5-methylpyridin-2-yl)butanamide], the EC50 was 130 nM.
Work on `COCC(Oc1ncnc2c1cnn2-c1ccccc1Cl)C(=O)Nc1ccc(C)cn1` (stereo not shown) [Example 1, 2-{[1-(2-chlorophenyl)-1H-pyrazolo[3,4-d]pyrimidin-4-yl]oxy}-3-methoxy-N-(5-methylpyridin-2-yl)propanamide] yielded an EC50 of 620 nM.
`CCOC[C@H](Oc1ncnc2c1cnn2-c1ccccc1S(C)(=O)=O)C(=O)Nc1ccc(Cl)cn1` [Example 130, (2S)—N-(5-chloropyridin-2-yl)-3-ethoxy-2-(1-(2-(methylsulfonyl)phenyl)-1H-pyrazolo[3,4-d]pyrimidin-4-yloxy)propanamide] showed an EC50 of 1100 nM.
For `O=C(Nc1ccccn1)[C@H](CN1CC(O)C1)Oc1ncnc2c1cnn2-c1ncccc1Cl` [Example 241, (2S)-2-[1-(3-chloro-2-pyridyl)pyrazolo[3,4-d]pyrimidin-4-yl]oxy-3-(3-hydroxyazetidin-1-yl)-N-(2-pyridyl)propanamide], the EC50 was 350 nM.
In the case of `COCC[C@H](Oc1ncnc2c1cnn2-c1cccc(C)c1)C(=O)Nc1ccc(C)cn1` [Example 33, (S)-4-methoxy-2-{[1-(3-methylphenyl)-1H-pyrazolo[3,4-d]pyrimidin-4-yl]oxy}-N-(5-methylpyridin-2-yl)butanamide], the EC50 is reported as > 1700 nM.
`N#Cc1ccc(NC(=O)[C@H](CN2CC(O)C2)Oc2ncnc3c2cnn3-c2c(Cl)cccc2C#N)nc1` [Example 224, (2S)-2-[1-(2-chloro-6-cyano-phenyl)pyrazolo[3,4-d]pyrimidin-4-yl]oxy-N-(5-cyano-2-pyridyl)-3-(3-hydroxyazetidin-1-yl)propanamide] showed an EC50 of 510 nM.
With `N#Cc1cccc(Cl)c1-n1ncc2c(O[C@@H](COCCO)C(=O)Nc3ccccn3)ncnc21` [Example 238, (2S)-2-[1-(2-chloro-6-cyano-phenyl)pyrazolo[3,4-d]pyrimidin-4-yl]oxy-3-(2-hydroxyethoxy)-N-(2-pyridyl)propanamide] the EC50 was 420 nM.
Work on `Cc1cnc(NC(=O)[C@H](COC(C)C)Oc2ncnc3c2cnn3-c2nccnc2C)cn1` [Example 106, (2S)-3-Isopropoxy-N-(5-methylpyrazin-2-yl)-2-(1-(3-methylpyrazin-2-yl)-1H-pyrazolo[3,4-d]pyrimidin-4-yloxy)propanamide] yielded an EC50 of 6900 nM.
`N#Cc1ccc(NC(=O)[C@H](COCCO)Oc2ncnc3c2cnn3-c2ncccc2Cl)nc1` [Example 162, (2S)-2-(1-(3-chloropyridin-2-yl)-1H-pyrazolo[3,4-d]pyrimidin-4-yloxy)-N-(5-cyanopyridin-2-yl)-3-(2-hydroxyethoxy)propanamide] was tested, and the EC50 was 1500 nM.
`COC[C@H](Oc1ncnc2c1cnn2-c1ccccc1Cl)C(=O)Nc1nc(C)ns1` [Example 101, (2S)-2-(1-(2-Chlorophenyl)-1H-pyrazolo[3,4-d]pyrimidin-4-yloxy)-3-methoxy-N-(3-methyl-1,2,4-thiadiazol-5-yl)propanamide] gave an EC50 of 5000 nM.
In the case of `Cc1ccc(NC(=O)[C@H](COC(C)C)Oc2ncnc3c2cnn3-c2ccccc2Cl)nc1` [Example 98, (2S)-2-(1-(2-chlorophenyl)-1H-pyrazolo[3,4-d]pyrimidin-4-yloxy)-3-isopropoxy-N-(5-methylpyridin-2-yl)propanamide], the EC50 is reported as 110 nM.
`CCOC[C@H](Oc1ncnc2c1cnn2-c1ncccc1C(F)(F)F)C(=O)Nc1ccc(Cl)cn1` [Example 134, (2S)—N-(5-chloropyridin-2-yl)-3-ethoxy-2-[1-[3-(trifluoromethyl)pyridin-2-yl]pyrazolo[4,5-e]pyrimidin-4-yl]oxypropanamide] was tested, and the EC50 was 440 nM.
For `Cc1cnc(NC(=O)[C@H](COC(C)C)Oc2ncnc3c2cnn3-c2ncccc2Cl)cn1` [Example 92, (2S)-2-(1-(3-chloropyridin-2-yl)-1H-pyrazolo[3,4-d]pyrimidin-4-yloxy)-3-isopropoxy-N-(5-methylpyrazin-2-yl)propanamide], the EC50 was 420 nM.
With `COCC[C@@H](Oc1ncnc2c1cnn2-c1ccccc1OC)C(=O)Nc1ccc(C)cn1` [Example 23, (R)-4-Methoxy-2-{[1-(2-methoxyphenyl)-1H-pyrazolo[3,4-d]pyrimidin-4-yl]oxy}-N-(5-methylpyridin-2-yl)butanamide] the EC50 was ≥ 100000 nM.
`COCCOCCC(Sc1ncnc2c1cnn2C(C)C)C(=O)Nc1ccc(C)cn1` (stereo not shown) [Example 58, 2-[(1-Isopropyl-1H-pyrazolo[3,4-d]pyrimidin-4-yl)thio]-4-(2-methoxyethoxy)-N-(5-methylpyridin-2-yl)butanamide] gave an EC50 of 1950 nM.
